Measured values from patent publication US9227971B2, “Pyrazolo[1,5-a]pyrimidine compounds as mTOR inhibitors” (Merck Sharp & Dohme Corp., priority 2010, dated 2016).

What follows are compounds tested on phosphorylated AKT Ser473 (pAKT S473), mTORC2 activity, PC3 cells (assay: mTOR target engagement assay, immunofluorescent cell-based, pAKT S473 readout (mTORC2 activity)). Details: Homo sapiens, PC-3, PC3 cells.
Protocol: The target engagement of mTOR kinase inhibitors was evaluated using an immunofluorescent cell-based assay. In this assay, inhibition of mTORC1 activity was measured by the reduction in the level of phosphorylated 4E-BP1^[…] (p4E-BP1 Thr37/46), and inhibition of mTORC2 activity was measured by the reduction of phosphorylated AKT^Ser473 (pAKT S473).
PC3 cells (prostate tumor cell-line that contains a mutation in the tumor suppressor PTEN, that promotes the phosphorylation and activation of AKT and 4E-BP1) were used in the immunofluorescence assay. […] PC3 cells were then treated with 40 μl of the serially diluted test compounds (in 5% fetal bovine serum, F12 medium containing 0.25% DMSO) for ninety minutes at 37° C. The test compound solution was removed, and the plates were washed gently two times with 25 μl phosphate buffered saline (PBS). […] 5% Goat serum in PBS/0.3% Triton was used to block non-specific binding (60 minutes).
The primary antibodies targeting pAKT S473 and p4E-BP1 Thr37/46 were diluted into PBS/0.3% Triton and incubated with the cells overnight at 4° C. […] Plates were washed three times with PBS/0.1% Tween 20 before adding the secondary antibody at a 1:200 dilution.
Finally, the plates were washed three times with PBS/0.1% Tween 20 and the fluorescent intensity was read using an Analyst HT from Molecular Devices.

First: CC(=O)c1c(N2CC3CCC2CN3C(=O)[C@@H](C)O)nc2c(-c3ccc(-c4ccccc4)nc3)cnn2c1N (stereo partly drawn) [Compound 8.4, (2R)-1-(5-(6-acetyl-7-amino-3-(6-phenylpyridin-3-yl)pyrazolo[1,5-a]pyrimidin-5-yl)-2,5-diazabicyclo[2.2.2]octan-2-yl)-2-hydroxypropan-1-one]
Second: CC(=O)c1c(N2CC3CCC2CN3C(=O)c2nnc[nH]2)nc2c(-c3ccc(-c4ccccc4)nc3)cnn2c1N (centres unmarked) [Compound 8.3, 1-(5-(5-(4H-1,2,4-triazole-3-carbonyl)-2,5-diazabicyclo[2.2.2]octan-2-yl)-7-amino-3-(6-phenylpyridin-3-yl)pyrazolo[1,5-a]pyrimidin-6-yl)ethanone]
The IC50 of the first is higher: 1000 to 10000 nM for the first, 100 to 1000 nM for the second.

First: CC(=O)c1c([C@H]2CC3CC[C@H](C2)N3C(=O)c2nnc[nH]2)nc2c(-c3cnc4c(c3)CCC4O)cnn2c1N (stereo partly drawn) [Compound 7.60, 1-(5-((1R,3s,5S)-8-(4H-1,2,4-triazole-3-carbonyl)-8-azabicyclo[3.2.1]octan-3-yl)-7-amino-3-(7-hydroxy-6,7-dihydro-5H-cyclopenta[b]pyridin-3-yl)pyrazolo[1,5-a]pyrimidin-6-yl)ethanone]
Second: CC(=O)c1c([C@@H]2C[C@H]3CC[C@@H](C2)N3C(=O)c2nnc[nH]2)nc2c(-c3cnc(C(N)=O)nc3)cnn2c1N [Compound 8.97, 5-(5-((1R,3s,5S)-8-(4H-1,2,4-triazole-3-carbonyl)-8-azabicyclo[3.2.1]octan-3-yl)-6-acetyl-7-aminopyrazolo[1,5-a]pyrimidin-3-yl)pyrimidine-2-carboxamide]
The IC50 of the first is lower: 100 to 1000 nM for the first, 1000 to 10000 nM for the second.

Compared with `Nc1ncc(-c2cnn3c(N)cc([C@@H]4C[C@H]5CC[C@@H](C4)N5C(=O)c4nnc[nH]4)nc23)cn1` [Compound 8.88, ((1R,3s,5S)-3-(7-amino-3-(2-aminopyrimidin-5-yl)pyrazolo[1,5-a]pyrimidin-5-yl)-8-azabicyclo[3.2.1]octan-8-yl)(4H-1,2,4-triazol-3-yl)methanone], `CC(=O)c1c(N2CC3CCC(C2)N3C(=O)c2nnc[nH]2)nc2c(-c3ccc(-c4ccccc4)nc3)cnn2c1N` [Compound 8.1, 1-(5-(8-(4H-1,2,4-triazole-3-carbonyl)-3,8-diazabicyclo[3.2.1]octan-3-yl)-7-amino-3-(6-phenylpyridin-3-yl)pyrazolo[1,5-a]pyrimidin-6-yl)ethanone] is lower in IC50: > 10000 nM for the first, 100 to 1000 nM for the second.

Same assay, conditions: Homo sapiens, PC-3, PC3 cells, compound treatment ninety minutes at 37° C.

Compared with `Cn1cnc(-c2ccc(-c3cnn4c(N)c(C5CC5)c([C@@H]5C[C@H]6CC[C@@H](C5)N6C(=O)c5nnc[nH]5)nc34)cn2)c1` [Compound 4.23, ((1R,3a,5S)-3-(7-amino-6-cyclopropyl-3-(6-(1-methyl-1H-imidazol-4-yl)pyridin-3-yl)pyrazolo[1,5-a]pyrimidin-5-yl)-8-azabicyclo[3.2.1]octan-8-yl)(4H-1,2,4-triazol-3-yl)methanone], `Cc1ccc(-c2cnn3c(N)c(C4CC4)c([C@@H]4C[C@H]5CC[C@@H](C4)N5C(=O)c4nnc[nH]4)nc23)cn1` [Compound 4.16, ((1R,3s,5S)-3-(7-amino-6-cyclopropyl-3-(6-methylpyridin-3-yl)pyrazolo[1,5-a]pyrimidin-5-yl)-8-azabicyclo[3.2.1]octan-8-yl)(4H-1,2,4-triazol-3-yl)methanone] is lower in IC50: 1000 to 10000 nM for the first, 100 to 1000 nM for the second. The second is the more potent here.

Compared with `CC(=O)c1c([C@@H]2C[C@H]3CC[C@@H](C2)N3C(=O)c2ccn[nH]2)nc2c(-c3ccc(-c4ccc(F)cc4)nc3)cnn2c1N` [Compound 1.1.157, 1-(5-((1R,3s,5S)-8-(1H-pyrazole-5-carbonyl)-8-azabicyclo[3.2.1]octan-3-yl)-7-amino-3-(6-(4-fluorophenyl)pyridin-3-yl)pyrazolo[1,5-a]pyrimidin-6-yl)ethanone], `CC(=O)c1c([C@@H]2C[C@H]3CC[C@@H](C2)N3C(=O)[C@H](O)CO)nc2c(-c3ccc(-c4ccccc4)nc3)cnn2c1N` [Compound 1.1.3, (R)-1-((1R,3S,5S)-3-(6-acetyl-7-amino-3-(6-phenylpyridin-3-yl)pyrazolo[1,5-a]pyrimidin-5-yl)-8-azabicyclo[3.2.1]octan-8-yl)-2,3-dihydroxypropan-1-one] is higher in IC50: 1 to 100 nM for the first, 100 to 1000 nM for the second.

`CC(=O)c1c([C@@H]2C[C@H]3CC[C@@H](C2)N3C(=O)c2cnn[nH]2)nc2c(-c3ccc(C4(O)CCC4)nc3)cnn2c1N` [Compound 7.19, 1-(5-((1R,3s,5S)-8-(1H-1,2,3-triazole-5-carbonyl)-8-azabicyclo[3.2.1]octan-3-yl)-7-amino-3-(6-(1-hydroxycyclobutyl)pyridin-3-yl)pyrazolo[1,5-a]pyrimidin-6-yl)ethanone] and `CC(=O)c1c([C@@H]2C[C@H]3CC[C@@H](C2)N3C(=O)[C@@H](C)O)nc2c(-c3ccc(-c4nccs4)nc3)cnn2c1N` [Compound 1.1.34, (R)-1-((1R,3S,5S)-3-(6-acetyl-7-amino-3-(6-(thiazol-2-yl)pyridin-3-yl)pyrazolo[1,5-a]pyrimidin-5-yl)-8-azabicyclo[3.2.1]octan-8-yl)-2-hydroxypropan-1-one] fall in the same range of IC50: 100 to 1000 nM for the first, 100 to 1000 nM for the second.

Same assay, conditions: Homo sapiens, PC-3, Table 3-1; PC3 cells

Compared with `C[C@@H](O)C(=O)N1[C@@H]2CC[C@H]1C[C@H](c1nc3c(-c4ccc(-c5ccc(F)cc5)nc4)cnn3c(N)c1S(C)(=O)=O)C2` [Compound 3.122, (R)-1-((1R,3S,5S)-3-(7-amino-3-(6-(4-fluorophenyl)pyridin-3-yl)-6-(methylsulfonyl)pyrazolo[1,5-a]pyrimidin-5-yl)-8-azabicyclo[3.2.1]octan-8-yl)-2-hydroxypropan-1-one], `CS(=O)(=O)c1c([C@@H]2C[C@H]3CC[C@@H](C2)N3C(=O)c2ccn[nH]2)nc2c(-c3ccc(-c4ccc(F)cc4)nc3)cnn2c1N` [Compound 3.121, ((1R,3s,5S)-3-(7-amino-3-(6-(4-fluorophenyl)pyridin-3-yl)-6-(methylsulfonyl)pyrazolo[1,5-a]pyrimidin-5-yl)-8-azabicyclo[3.2.1]octan-8-yl)(1H-pyrazol-5-yl)methanone] is lower in IC50: 100 to 1000 nM for the first, 1 to 100 nM for the second.

Same assay, conditions: Homo sapiens, PC-3, Table 6-1; PC3 cells

First: CC(=O)c1c([C@@H]2C[C@H]3CC[C@@H](C2)N3C(=O)CO)nc2c(-c3cnc(-c4ncc[nH]4)c(C)c3)cnn2c1N [Compound 6.33, 1-((1R,3s,5S)-3-(3-(6-(1H-imidazol-2-yl)-5-methylpyridin-3-yl)-6-acetyl-7-aminopyrazolo[1,5-a]pyrimidin-5-yl)-8-azabicyclo[3.2.1]octan-8-yl)-2-hydroxyethanone]
Second: Nc1c(C2CC2)c([C@@H]2C[C@H]3CC[C@@H](C2)N3C(=O)CO)nc2c(-c3cnc(-c4ncc[nH]4)c(F)c3)cnn12 [Compound 6.29, 1-((1R,3s,5S)-3-(7-amino-6-cyclopropyl-3-(5-fluoro-6-(1H-imidazol-2-yl)pyridin-3-yl)pyrazolo[1,5-a]pyrimidin-5-yl)-8-azabicyclo[3.2.1]octan-8-yl)-2-hydroxyethanone]
The IC50 of the first is higher: 1000 to 10000 nM for the first, 100 to 1000 nM for the second.

`CC(=O)c1c([C@@H]2C[C@H]3CC[C@@H](C2)N3C(=O)C(C)(C)CO)nc2c(-c3ccc(-c4ncc[nH]4)nc3)cnn2c1N` [Compound 6.45, 1-((1R,3s,5S)-3-(3-(6-(1H-imidazol-2-yl)pyridin-3-yl)-6-acetyl-7-aminopyrazolo[1,5-a]pyrimidin-5-yl)-8-azabicyclo[3.2.1]octan-8-yl)-3-hydroxy-2,2-dimethylpropan-1-one] and `CC(=O)OCC(=O)N1[C@@H]2CC[C@H]1C[C@H](c1nc3c(-c4ccc(-c5ncc[nH]5)nc4)cnn3c(N)c1C(C)=O)C2` [Compound 6.9, 2-((1R,3s,5S)-3-(3-(6-(1H-imidazol-2-yl)pyridin-3-yl)-6-acetyl-7-aminopyrazolo[1,5-a]pyrimidin-5-yl)-8-azabicyclo[3.2.1]octan-8-yl)-2-oxoethyl acetate] fall in the same range of IC50: 100 to 1000 nM for the first, 100 to 1000 nM for the second.

Same assay, conditions: Table 3-1; PC3 cells

`CS(=O)(=O)c1c([C@@H]2C[C@H]3CC[C@@H](C2)N3C(=O)CO)nc2c(-c3ccc(-c4ccc(F)cc4)nc3)cnn2c1N` [Compound 3.118, 1-((1R,3a,5S)-3-(7-amino-3-(6-(4-fluorophenyl)pyridin-3-yl)-6-(methylsulfonyl)pyrazolo[1,5-a]pyrimidin-5-yl)-8-azabicyclo[3.2.1]octan-8-yl)-2-hydroxyethanone] was tested, and the IC50 was 100 to 1000 nM.

Same assay, conditions: Table 7-2; PC3 cells

With `CS(=O)(=O)c1c([C@@H]2C[C@H]3CC[C@@H](C2)N3C(=O)CO)nc2c(-c3ccc(C4(O)CCC4)nc3)cnn2c1N` [Compound 7.28, 1-((1R,3s,5S)-3-(7-amino-3-(6-(1-hydroxycyclobutyl)pyridin-3-yl)-6-(methylsulfonyl)pyrazolo[1,5-a]pyrimidin-5-yl)-8-azabicyclo[3.2.1]octan-8-yl)-2-hydroxyethanone] the IC50 was 100 to 1000 nM.
